Measurements as given in ChEMBL document CHEMBL1135279, “Design and synthesis of lignostilbene-alpha,beta-dioxygenase inhibitors” (Bioorg Med Chem Lett, 2002).

Assays:
[1] = target: T1, Lignostilbene alpha, beta-dioxygenase (Sphingomonas paucimobilis, UniProt O87171); experiment: Inhibitory concentration against Lignostilbene alpha beta-dioxygenase (LSD) was determined in 2 mL of 50 mM […] buffer containing 4 microg enzyme/mL at 30 degree C
T1 sequence (O87171 whole entry): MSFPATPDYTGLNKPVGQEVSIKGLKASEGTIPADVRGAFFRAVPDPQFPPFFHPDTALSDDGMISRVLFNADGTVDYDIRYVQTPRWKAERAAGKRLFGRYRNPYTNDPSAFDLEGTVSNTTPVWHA

[2] = target: T1, Lignostilbene alpha, beta-dioxygenase; experiment: Inhibitory concentration against Lignostilbene-alpha, beta-dioxygenase (LSD) was determined in 2 mL of 50 mM […] buffer containing 4 microg enzyme/mL at 30 degree C
[3] = target: T1, Lignostilbene alpha, beta-dioxygenase; experiment: Tested for the inhibition of Lignostilbene-alpha, beta-dioxygenase (LSD)

C/C(=C/c1ccccc1)c1ccccc1
IC50 [1]: 22 µM

C/C(=C\c1ccccc1)c1ccccc1
IC50 [2]: > 100 µM

C/C(=C\c1ccc(O)cc1)c1ccccc1
IC50 [2]: 15 µM

Oc1ccc(/C(F)=C/c2ccccc2)cc1
IC50 [2]: 3 µM
Ki [3]: 0.98 µM

F/C(=C\c1ccccc1)c1ccccc1
IC50 [2]: > 100 µM

C/C(=C/c1ccc(O)cc1)c1ccccc1
IC50 [1]: 7 µM

C=C(C)c1ccc(O)cc1
IC50 [2]: 12 µM
